Where a name gives a salt, the structure may show the parent alone.
Columns and labels:
[1] = molecular target: T1, β2-Microglobulin (Homo sapiens, UniProt P61769); experiment: Photochemical labeling of β2-microglobulin with pyridinium salt (General Procedure B, LC/MS); assay type: biochemical; details: trypsin digest
T1 construct: β2-microglobulin (Human Urine ≥98% (SDS-PAGE)); purchased Lee Biosolutions; host or cells: human urine
Procedure: (§1) General Procedure B: Photochemical Irradiation of Peptides and Proteins: To a 2 mL Pyrex LC/MS vial (Thermo model #03-391-39) were sequentially added solutions containing the desired biomolecule, glutathione (GSH), pyridinium salt, and ammonium acetate (NH4OAc). The resulting solution was diluted to a final volume of 500 μL and then sparged using nitrogen for a minimum of 30 minutes prior to irradiation. The actively sparging solution was then placed in an EvoluChem™ PhotoRedOx Box photoreactor that was equipped with a Kessil, PR160 427 nm LED Lamp and was then irradiated (100% lamp intensity) for the designated time at room temperature while maintaining active sparging. The resultant reaction mixture was then analyzed directly by LC/MS. Analysis of labeling outcomes using LC/MS was performed either by extracted ion chromatogram intensities (method A) or by integrating the area under the peaks associated with peptide content (method B). […]
Labeling of β2-Microglobulin with Pyridinium Salt 2a (β2-Microglobulin-2a Conjugate). […] The reaction mixture was directly analyzed by LC/MS using method A and was estimated to have proceeded with 88% conversion with a >20:1 mono:di labeled ratio and 7% glutathionylation of all unlabeled and labeled protein content. β2-Microglobulin-2a conjugate (retention time (Tr)=3.26-4.70 min). […]

[2] = molecular target: T2, bovine carbonic anhydrase II (Bos taurus, UniProt P00921); experiment: Photochemical labeling of bovine carbonic anhydrase II with pyridinium salt (General Procedure B, LC/MS); assay type: biochemical; details: trypsin digest
T2 construct: Carbonic Anhydrase Isozyme II from bovine erythrocytes; purchased Sigma Aldrich; host or cells: bovine erythrocytes
Procedure: as §1, with “LC/MS.” for “LC/MS. Analysis of labeling outcomes using LC/MS was performed either by extracted ion chromatogram intensities (method A) or by integrating the area under the peaks associated with peptide content (method B).”
Labeling of Bovine Carbonic Anhydrase II with Pyridinium Salt 2a (Bovine Carbonic Anhydrase II-2a Conjugate). […] The reaction mixture was directly analyzed by LC/MS using method A and was estimated to have proceeded with 34% conversion and a 4.5:1 mono:di labeled ratio. […]
General Trypsin Digest Protocol B: For non-cystine bridged labeled proteins, a standard trypsin digest was modified as follows. […] The digested mixture was analyzed directly by LC/MS and MS/MS using method C. […]

T2 sequence (P00921 whole entry): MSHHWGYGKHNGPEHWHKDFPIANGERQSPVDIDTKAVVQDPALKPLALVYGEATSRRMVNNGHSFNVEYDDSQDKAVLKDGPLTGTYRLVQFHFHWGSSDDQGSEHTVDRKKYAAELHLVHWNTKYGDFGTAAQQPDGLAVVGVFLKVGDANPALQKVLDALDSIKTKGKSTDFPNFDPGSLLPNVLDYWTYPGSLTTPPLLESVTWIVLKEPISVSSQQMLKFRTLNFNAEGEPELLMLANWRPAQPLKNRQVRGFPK
T1 sequence (P61769 21-119): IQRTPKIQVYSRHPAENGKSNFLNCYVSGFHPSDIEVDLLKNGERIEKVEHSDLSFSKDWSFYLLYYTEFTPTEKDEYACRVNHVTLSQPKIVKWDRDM

With COC(=O)N(C)[n+]1c(C)cc(-c2ccc3cc(OC)ccc3c2)cc1C [pyridinium salt 2a, 1-((methoxycarbonyl)(methyl)amino)-4-(6-methoxynapthalen-2-yl)-2,6-dimethylpyridin-1-ium tetrafluoroborate] the “Modified Trp” value [1] was “Trp-60” and the “Modified Trp” value [2] was “Trp-243”.
